Assay results: US4939133A, “N-substituted-2-hydroxy-α-oxo-benzeneacetamides and pharmaceutical compositions having activity as modulators of the arachidonic acid cascade” (Warner-Lambert Company, priority 1985, dated 1990)

Molecular target: Human Leukocyte Lipoxygenase
Assay: Human Leukocyte Lipoxygenase Assay (LDA-H / LDAH)
Type: biochemical
Conditions: 50% reduction of reaction rate vs control, E -number means X 10^-no.
Method: Human Leukocyte Lipoxygenase Assay (LDA-H)
Whole blood is collected from normal volunteers and spun in a refrigerated centrifuge for four minutes at 1°-6° C. at 3800 g. The buffy coat is manually separated and washed twice with chilled 0.83% NH4 Cl and centrifuged at 1000 RPM for ten minutes at 4° C. The white cell is suspended in culture media-EMEM supplemented with 6% Agamma human serum, tricine buffer, and neomycin and recentrifuged at 1000 g to yield a pellet containing the leukocytes used for the preparation of the acetone pentane powder.
The acetone-pentane powder is prepared utilizing a modification of the procedure reported for human platelet lipoxygenase. See Siegel, et al, Arachidonate Metabolism via Lipoxygenase and 12-L-hydroperoxy-5-Eicostetraenoic acid Peroxidase Sensitive to Antiinflammatory Drugs, Proc. Natl. Acad. Sci., USA 77:308, 1980 and D. P. Wallach and V. R. Brown, a novel Preparation of Human Platlet Lipoxygenase, Biochem. Biophys. Acta. 663:361, 1981. Buffy coat prepared above is resuspended in 5-7 volumes of cold 0.1M Tris buffer, pH 7.4 containing 0.154M NaCl. The suspension is centrifuged at 13,300 g for ten minutes at 4° C. The resultant pellet was retained, resuspended in five volumes of cold acetone, recentrifuged at 13,300 g and resuspended in five volumes of cold pentane. The pentane suspension is centrifuged for ten minutes at 13,300 g to give a pellet which is dried in the cold under vacuum with periodic pulverization. The dry powder is stable for several weeks when stored at -88° C.
Enzyme stock solution is prepared in the following manner. About 15 mg of the acetone-pentane powder sis suspended in 4 ml of cold tris buffer (0.1M, pH 7.4), allowed to stand for five minutes, and homogenized thorougly. The homogenate is sonicated three times for 15 seconds each time, diluted to 7 ml with cold tris buffer (0.1M, pH 7.4), and centrifuged at 4° C. for 60 minutes at 13,300 g. The supernatent is retained and diluted to a total of 10 ml with cold tris buffer (0.1M, pH 7.4) to give the stck enzyme solution. Additional dilutions of 2-50 fold are done as necessary to locate optimal enzyme reaction rate in the assay described below.
Substrate solution is prepared at 100 μM or 1.0 μM concentrations of arachidonic acid or linoleic acid in 0.1M tris buffer, pH 9.0 containing 20% ethanol.
The enzyme reaction is followed spectrophotometrically by the appearance of a conjugated diene product at 234 nm. The reaction is monitored at 24° C. using a Gilford Model 2600 spectrophotometer. […] The effects of inhibitors on the reaction are compared with control reactions run under indentical conditions. Routinely, each compounds of the present invention is incubated with the enzyme for five minutes prior to addition of substrate to initiate the reaction. Inhibition expressed as IC50 as molar concentration of the compound required to reduce reaction rate to 50% control.

IC50: 14 µM
SMILES: COc1ccc(CCc2ccc(NC(=O)c3ccc(C)cc3O)cc2)cc1OC [Example 46, N-[4-[2-(3,4-Dimethoxyphenyl)ethyl]phenyl]-2-hydroxy-4-methylbenzamide]
